The target in this assay is T1, recombinant guanylate cyclase reporter cell line (Rattus norvegicus, UniProt P19686+P20595).
T1 construct: expressed in transfected cells; host or cells: recombinant reporter cell line
T1 sequence (P19686 1-690): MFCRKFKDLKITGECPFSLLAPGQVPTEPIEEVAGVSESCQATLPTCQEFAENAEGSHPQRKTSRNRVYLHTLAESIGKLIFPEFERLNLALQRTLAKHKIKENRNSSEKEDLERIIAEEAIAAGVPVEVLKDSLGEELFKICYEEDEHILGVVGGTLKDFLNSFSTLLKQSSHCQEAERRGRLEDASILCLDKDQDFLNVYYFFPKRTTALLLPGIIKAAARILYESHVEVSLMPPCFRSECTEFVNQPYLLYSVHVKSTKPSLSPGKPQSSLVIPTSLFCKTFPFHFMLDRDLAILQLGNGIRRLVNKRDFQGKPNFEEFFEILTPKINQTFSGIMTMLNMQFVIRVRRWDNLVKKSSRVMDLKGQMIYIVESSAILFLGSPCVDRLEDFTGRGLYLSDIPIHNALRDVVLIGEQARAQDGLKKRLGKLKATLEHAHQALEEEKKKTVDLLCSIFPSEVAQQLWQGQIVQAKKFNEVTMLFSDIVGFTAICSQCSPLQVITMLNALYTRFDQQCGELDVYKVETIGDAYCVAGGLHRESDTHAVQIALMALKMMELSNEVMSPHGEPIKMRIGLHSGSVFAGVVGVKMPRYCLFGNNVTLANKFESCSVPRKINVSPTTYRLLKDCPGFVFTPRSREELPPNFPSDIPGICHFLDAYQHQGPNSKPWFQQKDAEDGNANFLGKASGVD
T1 sequence (P20595 1-619): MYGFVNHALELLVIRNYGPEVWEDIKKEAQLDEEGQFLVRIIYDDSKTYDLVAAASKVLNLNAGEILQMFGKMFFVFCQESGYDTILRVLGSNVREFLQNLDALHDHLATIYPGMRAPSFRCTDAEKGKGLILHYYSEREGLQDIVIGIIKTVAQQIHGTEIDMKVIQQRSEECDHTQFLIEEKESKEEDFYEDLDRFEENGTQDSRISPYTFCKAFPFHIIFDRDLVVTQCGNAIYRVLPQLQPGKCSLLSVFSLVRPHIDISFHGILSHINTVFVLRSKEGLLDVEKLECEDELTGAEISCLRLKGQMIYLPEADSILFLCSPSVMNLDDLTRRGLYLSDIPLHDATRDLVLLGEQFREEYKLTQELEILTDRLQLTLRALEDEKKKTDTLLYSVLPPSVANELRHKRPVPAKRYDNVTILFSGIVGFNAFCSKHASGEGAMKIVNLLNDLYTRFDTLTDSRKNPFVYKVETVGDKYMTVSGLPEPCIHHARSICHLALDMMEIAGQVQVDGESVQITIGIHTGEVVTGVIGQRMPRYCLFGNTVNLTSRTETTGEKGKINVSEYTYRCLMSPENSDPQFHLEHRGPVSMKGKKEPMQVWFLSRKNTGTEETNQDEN
Put plainly: Action on recombinant guanylate cyclase reporter cell line. Type of assay: cell-based. The conditions noted are these: in some cases mean values from individual determinations. The method in brief:
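Read-out: MEC (minimal effective concentration) in cells. Reporter line carries recombinant sGC. Some values are averages of single runs.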

For the compound `Cc1cc(OCc2c(F)cccc2F)c2nc(C)c(C(=O)NCC(N)c3ccc4ncccc4c3)n2c1` (racemic) [Example 372, rac-N-[2-amino-2-(quinolin-6-yl)ethyl]-8-[(2,6-difluorobenzyl)oxy]-2,6-dimethylimidazo[1,2-a]pyridine-3-carboxamide], the “MEC (minimal effective concentration)” value was 3.00 µM.

With `Cc1cc(OCc2c(F)cccc2F)c2nc(C)c(C(=O)NCC(N)c3csc4ccccc34)n2c1` (racemic) [Example 373, rac-N-[2-amino-2-(1-benzothiophen-3-yl)ethyl]-8-[(2,6-difluorobenzyl)oxy]-2,6-dimethylimidazo[1,2-a]pyridine-3-carboxamide], the “MEC (minimal effective concentration)” value was found to be 3.00 µM.

As to `Cc1cc(OCc2c(F)cccc2F)c2nc(C)c(C(=O)NCC(N)c3cc(F)c(F)c(F)c3)n2c1` (racemic) [Example 374, rac-N-[2-amino-2-(3,4,5-trifluorophenyl)ethyl]-8-[(2,6-difluorobenzyl)oxy]-2,6-dimethylimidazo[1,2-a]pyridine-3-carboxamide], the “MEC (minimal effective concentration)” value was determined as 1.00 µM.

`Cc1cc(OCc2c(F)cccc2F)c2nc(C)c(C(=O)NCC(N)c3cccc(OC(F)F)c3)n2c1` (racemic) [Example 375, rac-N-{2-amino-2-[3-(difluoromethoxy)phenyl]ethyl}-8-[(2,6-difluorobenzyl)oxy]-2,6-dimethylimidazo[1,2-a]pyridine-3-carboxamide]: the “MEC (minimal effective concentration)” value worked out at 3.00 µM.

Consider `Cc1cc(OCc2c(F)cccc2F)c2nc(C)c(C(=O)NCC(N)c3cccc(C(F)(F)F)c3)n2c1` (racemic) [Example 376, rac-N-{2-amino-2-[3-(trifluoromethyl)phenyl]ethyl}-8-[(2,6-difluorobenzyl)oxy]-2,6-dimethylimidazo[1,2-a]pyridine-3-carboxamide], for which the “MEC (minimal effective concentration)” value worked out at 3.00 µM.

Consider `Cc1cc(OCc2c(F)cccc2F)c2nc(C)c(C(=O)NCC(N)c3cccc(OC(F)(F)F)c3)n2c1` (racemic) [Example 377, rac-N-{2-amino-2-[3-(trifluoromethoxy)phenyl]ethyl}-8-[(2,6-difluorobenzyl)oxy]-2,6-dimethylimidazo[1,2-a]pyridine-3-carboxamide], for which the “MEC (minimal effective concentration)” value is 3.00 µM.

On to `COc1cccc(C(N)CNC(=O)c2c(C)nc3c(OCc4c(F)cccc4F)cc(C)cn23)c1` (racemic) [Example 378, rac-N-[2-amino-2-(3-methoxyphenyl)ethyl]-8-[(2,6-difluorobenzyl)oxy]-2,6-dimethylimidazo[1,2-a]pyridine-3-carboxamide], for which the “MEC (minimal effective concentration)” value was 1.00 µM.

In the case of `Cc1cc(OCc2c(F)cccc2F)c2nc(C)c(C(=O)NC(CN)c3ccc4ccccc4c3)n2c1` (racemic) [Example 379, rac-N-[2-amino-1-(2-naphthyl)ethyl]-8-[(2,6-difluorobenzyl)oxy]-2,6-dimethylimidazo[1,2-a]pyridine-3-carboxamide], the “MEC (minimal effective concentration)” value is 1.00 µM.

On to `Cc1cc(OCc2c(F)cccc2F)c2nc(C)c(C(=O)NC(CN)c3cccc(OC(F)(F)F)c3)n2c1` (racemic) [Example 380, rac-N-{2-amino-1-[3-(trifluoromethoxy)phenyl]ethyl}-8-[(2,6-difluorobenzyl)oxy]-2,6-dimethylimidazo[1,2-a]pyridine-3-carboxamide], for which the “MEC (minimal effective concentration)” value was found to be 1.00 µM.

Turning to `Cc1cc(OCc2c(F)cccc2F)c2nc(C)c(C(=O)NC(CN)c3ccc4c(c3)OCO4)n2c1` (racemic) [Example 381, rac-N-[2-amino-1-(1,3-benzodioxol-5-yl)ethyl]-8-[(2,6-difluorobenzyl)oxy]-2,6-dimethylimidazo[1,2-a]pyridine-3-carboxamide], the “MEC (minimal effective concentration)” value is 0.30 µM.

With `COc1cccc(C(CN)NC(=O)c2c(C)nc3c(OCc4c(F)cccc4F)cc(C)cn23)c1` (racemic) [Example 382, rac-N-[2-amino-1-(3-methoxyphenyl)ethyl]-8-[(2,6-difluorobenzyl)oxy]-2,6-dimethylimidazo[1,2-a]pyridine-3-carboxamide], the “MEC (minimal effective concentration)” value was 0.30 µM.

Regarding `Cc1cc(OCc2c(F)cccc2F)c2nc(C)c(C(=O)NC(CN)c3cccc(Br)c3)n2c1` (racemic) [Example 383, rac-N-[2-amino-1-(3-bromophenyl)ethyl]-8-[(2,6-difluorobenzyl)oxy]-2,6-dimethylimidazo[1,2-a]pyridine-3-carboxamide], the “MEC (minimal effective concentration)” value stood at 0.30 µM.

Turning to `Cc1cc(OCc2c(F)cccc2F)c2nc(C)c(C(=O)NC(CN)c3ccc([N+](=O)[O-])cc3)n2c1` (racemic) [Example 384, rac-N-[2-amino-1-(4-nitrophenyl)ethyl]-8-[(2,6-difluorobenzyl)oxy]-2,6-dimethylimidazo[1,2-a]pyridine-3-carboxamide], the “MEC (minimal effective concentration)” value came to 0.30 µM.

`C=Cc1cccc(C(CN)NC(=O)c2c(C)nc3c(OCc4c(F)cccc4F)cc(C)cn23)c1` (racemic) [Example 385, rac-N-[2-amino-1-(3-ethenylphenyl)ethyl]-8-[(2,6-difluorobenzyl)oxy]-2,6-dimethylimidazo[1,2-a]pyridine-3-carboxamide]: the “MEC (minimal effective concentration)” value amounted to 1.00 µM.

On to `COc1ccc(CC(C)(CN)NC(=O)c2c(C)nc3c(OCc4c(F)cccc4F)cc(C)cn23)cc1` (racemic) [Example 386, rac-N-[1-amino-3-(4-methoxyphenyl)-2-methylpropan-2-yl]-8-[(2,6-difluorobenzyl)oxy]-2,6-dimethylimidazo[1,2-a]pyridine-3-carboxamide], for which the “MEC (minimal effective concentration)” value turned out to be 0.65 µM.

Turning to `Cc1cc(OCc2c(F)cccc2F)c2nc(C)c(C(=O)NC(CN)c3cnn(C)c3)n2c1` (racemic) [Example 387, rac-N-[2-amino-1-(1-methyl-1H-pyrazol-4-yl)ethyl]-8-[(2,6-difluorobenzyl)oxy]-2,6-dimethylimidazo[1,2-a]pyridine-3-carboxamide], the “MEC (minimal effective concentration)” value amounted to 10.0 µM.

As to `Cc1cc(OCc2c(F)cccc2F)c2nc(C)c(C(=O)NC(CN)c3ccc4c(c3)OCCO4)n2c1` (racemic) [Example 388, rac-N-[2-amino-1-(2,3-dihydro-1,4-benzodioxin-6-yl)ethyl]-8-[(2,6-difluorobenzyl)oxy]-2,6-dimethylimidazo[1,2-a]pyridine-3-carboxamide], the “MEC (minimal effective concentration)” value was 0.30 µM.

`Cc1cc(OCc2c(F)cccc2F)c2nc(C)c(C(=O)NC(CN)c3csc4ccccc34)n2c1` (racemic) [Example 389, rac-N-[2-amino-1-(1-benzothiophen-3-yl)ethyl]-8-[(2,6-difluorobenzyl)oxy]-2,6-dimethylimidazo[1,2-a]pyridine-3-carboxamide]: the “MEC (minimal effective concentration)” value came out at 1.00 µM.

In the case of `Cc1cc(OCc2c(F)cccc2F)c2nc(C)c(C(=O)NC(CN)c3cc(F)c(F)c(F)c3)n2c1` (racemic) [Example 390, rac-N-[2-amino-1-(3,4,5-trifluorophenyl)ethyl]-8-[(2,6-difluorobenzyl)oxy]-2,6-dimethylimidazo[1,2-a]pyridine-3-carboxamide], the “MEC (minimal effective concentration)” value amounted to 0.30 µM.

With `CSCCC(CN)NC(=O)c1c(C)nc2c(OCc3c(F)cccc3F)cc(C)cn12` (racemic) [Example 391, rac-N-[1-amino-4-(methylsulfanyl)butan-2-yl]-8-[(2,6-difluorobenzyl)oxy]-2,6-dimethylimidazo[1,2-a]pyridine-3-carboxamide], the “MEC (minimal effective concentration)” value is 0.10 µM.

On to `Cc1cc(OCc2c(F)cccc2F)c2nc(C)c(C(=O)NC(CN)c3cccc(OC(F)F)c3)n2c1` (racemic) [Example 392, rac-N-{2-amino-1-[3-(difluoromethoxy)phenyl]ethyl}-8-[(2,6-difluorobenzyl)oxy]-2,6-dimethylimidazo[1,2-a]pyridine-3-carboxamide], for which the “MEC (minimal effective concentration)” value turned out to be 1.00 µM.

(Values after patent US20150274719A1, “AMINO-SUBSTITUTED IMIDAZO[1,2-A]PYRIDINECARBOXAMIDES AND THEIR USE” (BAYER PHARMA AKTIENGESELLSCHAFT, priority 2012, published 2015).)
